In ChEMBL document CHEMBL4387706, “Discovery of Novel Spiroindoline Derivatives as Selective Tankyrase Inhibitors” (J Med Chem, 2019):
Converted amounts (≈) assume the structure as drawn. The source made the active and inactive calls. The rule behind the calls is not given here.

Experiments:
Homo sapiens [1] = species: Homo sapiens; assay: Effect on hippo signaling protein in human COLO320DM cells assessed as change in CTGF expression at 0.1 to 1 uM measured after 48 hrs by RT-PCR analysis; format: cell-based
[2] = Protein binding in mouse serum assessed as unbound fraction at 1 uM measured after 24 hrs by LC-MS/MS analysis; format: ADME, cell-free
[3] = Half life in Sprague-Dawley rat at 1 mg/kg, iv; format: ADME, organism-based; conditions: in vivo
Homo sapiens [4] = species: Homo sapiens; assay: Effect on hippo signaling protein in human COLO320DM cells assessed as change in CYR61 expression at 0.1 to 1 uM measured after 48 hrs by RT-PCR analysis; format: cell-based
[5] = target: Poly [ADP-ribose] polymerase 2 (Homo sapiens, UniProt Q9UGN5); assay: Inhibition of human recombinant N-terminal GST-tagged PARP2 (2 to 583 residues) expressed in baculovirus infected Sf9 cells assessed as reduction in auto-PARylation using histone as substrate measured after 45 mins in presence of biotinylated-NAD+ by ELISA
Poly [ADP-ribose] polymerase 2, sequence (Q9UGN5 whole entry, the tested form may be a part): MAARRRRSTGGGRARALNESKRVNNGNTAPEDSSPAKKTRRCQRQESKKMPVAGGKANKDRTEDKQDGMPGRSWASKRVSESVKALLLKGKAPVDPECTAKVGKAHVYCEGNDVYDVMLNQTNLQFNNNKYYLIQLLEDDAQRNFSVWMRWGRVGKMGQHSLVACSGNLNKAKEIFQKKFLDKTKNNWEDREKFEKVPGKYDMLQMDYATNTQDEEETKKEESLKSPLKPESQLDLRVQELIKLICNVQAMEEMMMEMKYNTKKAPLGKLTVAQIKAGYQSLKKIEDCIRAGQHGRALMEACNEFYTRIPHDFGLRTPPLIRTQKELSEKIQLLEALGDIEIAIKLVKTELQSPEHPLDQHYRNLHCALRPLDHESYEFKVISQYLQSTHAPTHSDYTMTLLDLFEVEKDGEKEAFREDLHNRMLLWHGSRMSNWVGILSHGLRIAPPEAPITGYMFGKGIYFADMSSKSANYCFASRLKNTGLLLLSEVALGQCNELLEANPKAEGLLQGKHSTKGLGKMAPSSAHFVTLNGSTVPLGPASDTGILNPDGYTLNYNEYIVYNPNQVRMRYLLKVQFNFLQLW

COLO 320DM = assay: Antitumor activity against human COLO320DM cells xenografted in mouse assessed as tumor growth inhibition at 40 mg/kg, ip administered twice daily for 11 days relative to control; format: functional; conditions: 264 h, read-out: TGI
[6] = Volume of distribution at steady state in Sprague-Dawley rat at 1 mg/kg, iv; format: ADME, organism-based; conditions: in vivo, read-out: Vdss
Homo sapiens [7] = species: Homo sapiens; assay: Effect on hippo signaling protein in human COLO320DM cells assessed as change in AMOTL2 expression at 0.1 to 1 uM measured after 48 hrs by RT-PCR analysis; format: cell-based
[8] = Oral bioavailability in Sprague-Dawley rat at 3 mg/kg; format: ADME, organism-based; conditions: in vivo
[9] = Total clearance in Sprague-Dawley rat at 1 mg/kg, iv; format: ADME, organism-based; conditions: in vivo
[10] = Toxicity in mouse xenografted with human COLO320DM cells assessed as body weight loss at 40 mg/kg, ip administered twice daily for 11 days; format: organism-based; conditions: in vivo, 264 h
[11] = Permeability of the compound by PAMPA; format: ADME; conditions: read-out: permeability
[12] = AUC (infinity) in Sprague-Dawley rat at 3 mg/kg, po; format: ADME, organism-based; parameters: dose 3 mg/kg, time infinity, route oral; conditions: in vivo
physchem = conditions: phosphate buffer, pH 7.4
in vitro [13] = conditions: mouse, liver microsomes
Description: Stability in mouse liver microsomes assessed as parent compound remaining at 1 uM measured after 30 mins in presence of NADPH by LC-MS/MS analysis

[14] = Tmax in Sprague-Dawley rat at 3 mg/kg, po; format: ADME, organism-based; conditions: in vivo
[15] = target: Poly [ADP-ribose] polymerase 1 (Homo sapiens, UniProt P09874)
Poly [ADP-ribose] polymerase 1, sequence (P09874 whole entry, the tested form may be a part): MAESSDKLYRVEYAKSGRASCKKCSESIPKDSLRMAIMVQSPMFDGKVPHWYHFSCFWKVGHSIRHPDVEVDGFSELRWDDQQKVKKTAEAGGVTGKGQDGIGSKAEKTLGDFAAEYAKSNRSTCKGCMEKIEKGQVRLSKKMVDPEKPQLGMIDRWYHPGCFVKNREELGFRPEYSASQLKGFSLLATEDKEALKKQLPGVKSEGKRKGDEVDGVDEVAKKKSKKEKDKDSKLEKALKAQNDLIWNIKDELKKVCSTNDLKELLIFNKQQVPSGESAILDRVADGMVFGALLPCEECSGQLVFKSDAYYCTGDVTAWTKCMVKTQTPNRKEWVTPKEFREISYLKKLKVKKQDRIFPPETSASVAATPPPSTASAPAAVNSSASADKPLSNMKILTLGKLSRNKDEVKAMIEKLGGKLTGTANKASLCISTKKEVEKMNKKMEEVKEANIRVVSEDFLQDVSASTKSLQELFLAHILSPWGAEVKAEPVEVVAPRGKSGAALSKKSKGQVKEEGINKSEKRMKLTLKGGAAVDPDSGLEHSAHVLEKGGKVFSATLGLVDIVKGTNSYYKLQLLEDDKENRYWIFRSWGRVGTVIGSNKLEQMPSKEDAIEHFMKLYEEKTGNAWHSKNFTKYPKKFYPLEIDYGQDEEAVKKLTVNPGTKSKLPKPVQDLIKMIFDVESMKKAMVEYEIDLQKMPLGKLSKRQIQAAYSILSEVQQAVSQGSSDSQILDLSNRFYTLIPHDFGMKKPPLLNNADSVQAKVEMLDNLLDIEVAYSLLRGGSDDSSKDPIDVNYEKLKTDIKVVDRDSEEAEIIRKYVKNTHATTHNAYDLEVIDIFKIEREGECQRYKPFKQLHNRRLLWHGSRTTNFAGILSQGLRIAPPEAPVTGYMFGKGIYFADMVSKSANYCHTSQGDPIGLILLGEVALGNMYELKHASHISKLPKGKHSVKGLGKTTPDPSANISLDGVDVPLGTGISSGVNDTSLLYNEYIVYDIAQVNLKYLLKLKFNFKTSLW
Description: Inhibition of recombinant human PARP1 expressed in Escherichia coli assessed as reduction in auto-PARylation using histone as substrate measured after 45 mins in presence of biotinylated-NAD+ by ELISA

[16] = target: T1, Protein mono-ADP-ribosyltransferase PARP10 (Homo sapiens, UniProt Q53GL7); assay: Inhibition of human recombinant N-terminal TEV-cleavgae site-fused-FLAG/Polyhis-tagged PARP10 […] expressed in Escherichia coli assessed as reduction in auto-PARylation using histone as substrate measured after 45 mins in presence of biotinylated-NAD+ by ELISA
T1 sequence (Q53GL7 whole entry): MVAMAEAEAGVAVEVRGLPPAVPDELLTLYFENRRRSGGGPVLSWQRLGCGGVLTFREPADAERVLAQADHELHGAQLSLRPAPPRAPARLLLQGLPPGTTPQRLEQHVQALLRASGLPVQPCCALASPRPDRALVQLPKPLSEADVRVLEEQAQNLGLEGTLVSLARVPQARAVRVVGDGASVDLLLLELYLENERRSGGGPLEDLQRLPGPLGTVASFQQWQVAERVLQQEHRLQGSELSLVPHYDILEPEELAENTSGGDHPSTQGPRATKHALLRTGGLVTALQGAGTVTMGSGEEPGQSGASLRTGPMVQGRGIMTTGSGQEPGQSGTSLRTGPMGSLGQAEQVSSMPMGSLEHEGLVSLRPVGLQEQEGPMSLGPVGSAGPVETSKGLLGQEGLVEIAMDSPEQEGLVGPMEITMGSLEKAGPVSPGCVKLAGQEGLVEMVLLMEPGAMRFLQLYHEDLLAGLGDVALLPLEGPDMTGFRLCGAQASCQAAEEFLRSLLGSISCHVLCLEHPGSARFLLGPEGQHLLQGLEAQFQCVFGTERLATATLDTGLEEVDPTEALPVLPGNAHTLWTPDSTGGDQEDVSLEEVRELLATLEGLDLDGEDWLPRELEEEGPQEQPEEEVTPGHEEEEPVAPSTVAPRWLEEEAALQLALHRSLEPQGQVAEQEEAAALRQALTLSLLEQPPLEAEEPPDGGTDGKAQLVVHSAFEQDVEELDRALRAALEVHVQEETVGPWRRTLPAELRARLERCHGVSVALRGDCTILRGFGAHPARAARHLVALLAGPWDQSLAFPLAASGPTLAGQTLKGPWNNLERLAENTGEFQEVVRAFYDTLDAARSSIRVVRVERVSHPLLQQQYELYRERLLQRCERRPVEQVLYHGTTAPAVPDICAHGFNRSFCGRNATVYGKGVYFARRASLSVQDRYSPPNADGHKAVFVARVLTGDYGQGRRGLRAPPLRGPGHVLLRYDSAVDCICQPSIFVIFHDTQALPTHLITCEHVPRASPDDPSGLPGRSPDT

[17] = Initial plasma concentration in Sprague-Dawley rat at 1 mg/kg, iv; format: ADME, organism-based
[18] = Protein binding in human serum assessed as unbound fraction at 1 uM measured after 24 hrs by LC-MS/MS analysis; format: ADME, cell-free
in vitro [19] = conditions: human, liver microsomes
Description: Stability in human liver microsomes assessed as parent compound remaining at 1 uM measured after 30 mins in presence of NADPH by LC-MS/MS analysis

[20] = Cmax in Sprague-Dawley rat at 3 mg/kg, po; format: ADME, organism-based; parameters: dose 3 mg/kg, route oral; conditions: in vivo
[21] = AUC (infinity) in Sprague-Dawley rat at 1 mg/kg, iv; format: ADME, organism-based; parameters: dose 1 mg/kg, route intravenous, time infinity; conditions: in vivo

- fraction unbound at 24 h, 1 µM [2]: 0.035
- half-life [3]: 3.3 h
- IC50 [5]: > 100 µM
- Vd [6]: 1.79 L/kg
- bioavailability [8]: 97.8%
- clearance [9]: 39.7 mL/min/kg
- Papp [11]: 11.4 ×10⁻⁶ cm/s
- AUC(0-inf) [12]: 2.33 µM·h
- solubility at 1 h, 200 µM (physchem): 1.5 µg/mL (≈ 2.83 µM)
- remaining at 0.5 h, 1 µM (in vitro [13]): 95.8%
- Tmax [14]: 4 h
- IC50 [15]: > 100 µM
- IC50 [16]: > 100 µM
- C0 [17]: 1540 nM
- fraction unbound at 24 h, 1 µM [18]: 0.028
- remaining at 0.5 h, 1 µM (in vitro [19]): 100%
- Cmax [20]: 230 nM
- AUC(0-inf) [21]: 0.79 µM·h
Compound: CS(=O)(=O)c1ccc(-c2nnc(/C=C/c3nnc(-c4ccc(C#N)cc4)o3)n2-c2ccccc2Cl)nc1
- Activity (Homo sapiens [1]): inactive
- Activity (Homo sapiens [4]): inactive
- inhibition in vivo at 40 mg/kg (COLO 320DM): 48%
- Activity (Homo sapiens [7]): inactive
- Activity [10]: Toxic
